Measured values taken from patent US8853409B2, “Pyridin-2yl-amino-1, 2, 4-thiadiazole derivatives as glucokinase activators for the treatment of diabetes mellitus” (Array BioPharma Inc., priority 2007, dated 2014).

Assay: Mouse PK study (oral pharmacokinetics)
Assay type: in vivo
Details: male, 10 mg/kg, CD-1 mice, plasma, read-out: AUC indicator (oral AUC)
Description: Oral pharmacokinetics of each of the compounds shown in Table 1 (“test compound”) were determined as follows.
Test compound was formulated in PEG400:ethanol:saline (40:20:40, by volume) for IV administration and in 30% Captisol in water for both IV and PO administration in CD-1 mice. Labetalol was used as an internal standard for the LC-MS/MS assay of the CD-1 mouse samples.
Adult male CD-1 mice were obtained from Charles River Laboratories in Portage, Mich. At the time of study-start, each CD-1 mouse weighed approximately 30 grams and was between the ages of 7-9 weeks. All CD-1 mice were acclimated to the Array BioPharma Inc. vivarium for at least 5 days prior to administration of an IV dose by way of a tail vein injection (5 mL/kg) or a PO dose by oral gavage (10 mL/kg).
Animals were euthanized by CO2 inhalation and blood samples were collected by cardiac puncture into syringes containing a 1.5% EDTA solution in water (w/v; pH was titrated to 7.4 with 5 N NaOH; the final ratio of blood to EDTA was approximately […]) as the anticoagulant. Plasma was harvested from blood samples by centrifugation and stored at −20° C. until analysis. The following time points were collected for the IV arm: 0.017, 0.083, 0.25, 0.5, 1, 2, 4, 8, 12 and 24 hours post dose. The following time points were collected for the PO arm: 0.25, 0.50, 1, 4, 8, and 24 hours post dose.
Protein was precipitated from 20 μL of mouse plasma with the addition of 200 μL of 0.1% acetic acid in acetonitrile. A single 12-point calibration curve was prepared by first serially diluting (3-fold) a 40-μg/mL stock solution of the test compound in acetonitrile. Naive CD-1 mouse plasma (20 μL) was then added to each standard solution (200 μL). A stock solution of the internal standard (Labetalol; 180 μL of 0.1 μg/mL in acetonitrile) was subsequently added to each standard and sample solution, for a total volume of 400 μL. Samples were vortex-mixed for 5 minutes and spun in an Allegra X-12R centrifuge (Beckman Coulter, Fullerton, Calif.) for 15 minutes at approximately 1,500×g at 4° C. A 100-μL aliquot of each supernatant was transferred via a 550 μL Personal Pipettor (Apricot Designs, Monrovia, Calif.) to 96-well plates and diluted 1:1 with HPLC grade water. The resulting plates were sealed with plate mats and analyzed by LC-MS/MS.
The LC-MS/MS system was comprised of an HTC-PAL autosampler (Leap Technologies, Inc., Carrboro, N.C.), an HP1100 HPLC (Agilent Technologies Inc., Santa Clara, Calif.), and an API4000 triple quadrupole mass spectrometer (Applied Biosystems, Foster City, Calif.). Chromatographic retention of the analyte and internal standard was achieved using a Betasil Phenyl-Hexyl column (2.1×30 mm, 3 μm particle size, Thermo Scientific) in conjunction with gradient conditions using mobile phases A (aqueous 0.1% formic acid and 1% IPA) and B (0.1% formic acid in acetonitrile). The total run time, including re-equilibration time, for a single injection was 3.5 minutes. Mass spectrometric detection of the analytes was accomplished using ESI+ ionization mode. Ion current was optimized during infusion of a stock solution of the test compound. Analyte responses were measured by multiple reaction monitoring (MRM) of transitions unique to each compound.
Data were acquired and processed using the Applied Biosystems Analyst software (version 1.4.2). Calibration was achieved by plotting the peak area ratios of analyte to internal standard as a function of the normal concentrations of standard samples. A calibration model was generated by quadratic regression of the calibration curve with a weighting factor of 1/x. The model was used to calculate the concentrations in all samples. The lower limit of quantitation (LLOQ) for this analysis was in the single-digit μg/mL range (either 2.03 or 6.10 μg/mL).
Pharmacokinetic parameters were calculated by established non-compartmental methods using an in-house Excel® (Microsoft Corporation, Redmond, Wash.) macro, PK Toolbox version 2.0. […]

AUC [ng·h/mL] | SMILES
1000 to 5000 | Cc1nn(C)c(C)c1Oc1cc(Sc2ccccn2)cnc1Nc1nc([C@H](O)CO)ns1.Cl [Example 147, (S)-1-(5-(5-(pyridin-2-ylthio)-3-(1,3,5-trimethyl-1H-pyrazol-4-yloxy)pyridin-2-ylamino)-1,2,4-thiadiazol-3-yl)ethane-1,2-diol hydrochloride]
1000 to 5000 | Cc1ccnc(C)c1Oc1cc(Sc2ccccn2)cnc1Nc1nc([C@H](O)CO)ns1.Cl [Example 142, (S)-1-(5-(3-(2,4-dimethylpyridin-3-yloxy)-5-(pyridin-2-ylthio)pyridin-2-ylamino)-1,2,4-thiadiazol-3-yl)ethane-1,2-diol hydrochloride]
5000 to 10000 | Cc1ncccc1Oc1cc(Sc2ccccn2)cnc1Nc1nc([C@@H](O)CO)ns1 [Example 149, (R)-1-(5-(3-(2-methylpyridin-3-yloxy)-5-(pyridin-2-ylthio)pyridin-2-ylamino)-1,2,4-thiadiazol-3-yl)ethane-1,2-diol]
> 20000 | CCn1nccc1Oc1cc(Sc2ccccn2)cnc1Nc1nc([C@H](O)CO)ns1.Cl [Example 139, (S)-1-(5-(3-(1-Ethyl-1H-pyrazol-5-yloxy)-5-(pyridin-2-ylthio)pyridin-2-ylamino)-1,2,4-thiadiazol-3-yl)ethane-1,2-diol hydrochloride]
10000 to 20000 | Cc1ncccc1Oc1cc(Sc2ccccn2)cnc1Nc1nc([C@H](O)CO)ns1.Cl [Example 134, (S)-1-(5-(3-(2-methylpyridin-3-yloxy)-5-(pyridin-2-ylthio)pyridin-2-ylamino)-1,2,4-thiadiazol-3-yl)ethane-1,2-diol hydrochloride]
10000 to 20000 | Cc1nn(C)c(C)c1Oc1cc(Sc2ccccn2)cnc1Nc1nc([C@H](O)C(C)(C)O)ns1.Cl [Example 146, (S)-2-methyl-1-(5-(5-(pyridin-2-ylthio)-3-(1,3,5-trimethyl-1H-pyrazol-4-yloxy)pyridin-2-ylamino)-1,2,4-thiadiazol-3-yl)propane-1,2-diol hydrochloride]
5000 to 10000 | Cc1ccc(Oc2cc(Sc3ccccn3)cnc2Nc2nc([C@H](O)CO)ns2)c(C)n1.Cl [Example 135, (S)-1-(5-(3-(2,6-dimethylpyridin-3-yloxy)-5-(pyridin-2-ylthio)pyridin-2-ylamino)-1,2,4-thiadizol-3-yl)ethane-1,2-diol hydrochloride]

The next lines start with the compound.

SMILES | AUC [ng·h/mL]
Cc1cccnc1Sc1cnc(Nc2nc([C@H](O)CO)ns2)c(Oc2cccnc2C)c1.Cl [Example 141, (S)-1-(5-(5-(3-methylpyridin-2-ylthio)-3-(2-methylpyridin-3-yloxy)pyridin-2-ylamino)-1,2,4-thiadiazol-3-yl)ethane-1,2-diol hydrochloride] | 1000 to 5000
CCn1nccc1Oc1cc(Sc2ccccn2)cnc1Nc1nc([C@H](O)C(C)(C)O)ns1.Cl [Example 140, (S)-1-(5-(3-(1-ethyl-1H-pyrazol-5-yloxy)-5-(pyridin-2-ylthio)pyridin-2-ylamino)-1,2,4-thiadiazol-3-yl)-2-methylpropane-1,2-diol] | > 20000
Cc1ncccc1Oc1cc(SCC2CC2)cnc1Nc1nc([C@H](O)CO)ns1.Cl [Example 136, (S)-1-(5-(5-(cyclopropylmethylthio)-3-(2-methylpyridin-3-yloxy)pyridin-2-ylamino)-1,2,4-thiadizol-3-yl)ethane-1,2-diol hydrochloride] | 10000 to 20000
Cc1ncccc1Oc1cc(Sc2ccccn2)cnc1Nc1nc([C@H](O)C(C)(C)O)ns1.Cl [Example 143, (S)-2-methyl-1-(5-(3-(2-methylpyridin-3-yloxy)-5-(pyridin-2-ylthio)pyridin-2-ylamino)-1,2,4-thiadiazol-3-yl)propane-1,2-diol hydrochloride] | > 20000
CCc1ncccc1Oc1cc(Sc2ccccn2)cnc1Nc1nc([C@H](O)CO)ns1 [Example 137] | 5000 to 10000
CCc1ncccc1Oc1cc(Sc2ccccn2)cnc1Nc1nc([C@H](O)[C@@H](O)COC)ns1.Cl [Example 145, (1S,2S)-1-(5-(3-(2-ethylpyridin-3-yloxy)-5-(pyridin-2-ylthio)pyridin-2-ylamino)-1,2,4-thiadiazol-3-yl)-3-methoxypropane-1,2-diol hydrochloride] | 5000 to 10000
COCCCSc1cnc(Nc2nc([C@H](O)CO)ns2)c(Oc2cccnc2C)c1.Cl [Example 138, (S)-1-(5-(5-(3-methoxypropylthio)-3-(2-methylpyridin-3-yloxy)-pyridin-2-ylamino)-1,2,4-thiadizol-3-yl)ethane-1,2-diol hydrochloride] | 1000 to 5000
Cc1ncccc1Oc1cc(Sc2ccccn2)cnc1Nc1nc([C@@](C)(O)CO)ns1.Cl [Example 151, (R)-2-(5-(3-(2-methylpyridin-3-yloxy)-5-(pyridin-2-ylthio)pyridin-2-ylamino)-1,2,4-thiadiazol-3-yl)propane-1,2-diol hydrochloride] | > 20000
COCCSc1cnc(Nc2nc([C@H](O)CO)ns2)c(Oc2cccnc2C)c1.Cl [Example 144, (S)-1-(5-(5-(2-methoxyethylthio)-3-(2-methylpyridin-3-yloxy)pyridin-2-ylamino)-1,2,4-thiadiazol-3-yl)ethane-1,2-diol hydrochloride] | 5000 to 10000
Cc1ncccc1Oc1cc(Sc2ccccn2)cnc1Nc1nc([C@](C)(O)CO)ns1.Cl [Example 150, (S)-2-(5-(3-(2-methylpyridin-3-yloxy)-5-(pyridin-2-ylthio)pyridin-2-ylamino)-1,2,4-thiadiazol-3-yl)propane-1,2-diol hydrochloride] | 10000 to 20000
COCCSc1cnc(Nc2nc([C@H](O)CO)ns2)c(Oc2c(C)nn(C)c2C)c1.Cl [Example 148, (S)-1-(5-(5-(2-methoxyethylthio)-3-(1,3,5-trimethyl-1H-pyrazol-4-yloxy)pyridin-2-ylamino)-1,2,4-thiadiazol-3-yl)ethane-1,2-diol hydrochloride] | 1000 to 5000
